Laboratory results as given in paper PMC4691848 (Nature, 2012).

Experiments:
100 protein kinases = assay: kinase competition-binding assay; conditions: 30 μM
[1] = test system: panel of 60 unrelated proteins, including histone deacetylases; assay: off-target panel
[2] = molecular target: Flag-tagged UTX from transiently transfected HEK-293 cells (Homo sapiens, UniProt O15550); assay: chemoproteomics affinity capture with immobilized GSK-J3, western blotting; assay type: binding; conditions: 100 μM free compound, HEK-293 lysate
[3] = intracellular compound quantification in macrophage lysates; assay type: in vitro ADME, human
[4] = test system: panel of demethylases of the JMJ family; assay: JMJ selectivity panel; conditions: other than JMJD3 and UTX
[5] = TNF-α production by LPS-activated macrophages; assay type: cell-based, human
[6] = ChIP analysis at the TNFA locus in LPS-stimulated macrophages; assay type: cell-based, human
[7] = test system: Flag-JMJD3-transfected HeLa cells; assay: nuclear H3K27me3 immunostaining; assay type: cell-based
[8] = cytokine expression by PCR array in LPS-activated macrophages; assay type: cell-based, human; conditions: 30 μM, LPS 2 h, n = 4 donors
[9] = test system: macrophages derived from patients with rheumatoid arthritis; assay: TNF-α production by macrophages derived from patients with rheumatoid arthritis; assay type: cell-based, human

Flag-tagged UTX from transiently transfected HEK-293 cells, sequence (O15550 whole entry): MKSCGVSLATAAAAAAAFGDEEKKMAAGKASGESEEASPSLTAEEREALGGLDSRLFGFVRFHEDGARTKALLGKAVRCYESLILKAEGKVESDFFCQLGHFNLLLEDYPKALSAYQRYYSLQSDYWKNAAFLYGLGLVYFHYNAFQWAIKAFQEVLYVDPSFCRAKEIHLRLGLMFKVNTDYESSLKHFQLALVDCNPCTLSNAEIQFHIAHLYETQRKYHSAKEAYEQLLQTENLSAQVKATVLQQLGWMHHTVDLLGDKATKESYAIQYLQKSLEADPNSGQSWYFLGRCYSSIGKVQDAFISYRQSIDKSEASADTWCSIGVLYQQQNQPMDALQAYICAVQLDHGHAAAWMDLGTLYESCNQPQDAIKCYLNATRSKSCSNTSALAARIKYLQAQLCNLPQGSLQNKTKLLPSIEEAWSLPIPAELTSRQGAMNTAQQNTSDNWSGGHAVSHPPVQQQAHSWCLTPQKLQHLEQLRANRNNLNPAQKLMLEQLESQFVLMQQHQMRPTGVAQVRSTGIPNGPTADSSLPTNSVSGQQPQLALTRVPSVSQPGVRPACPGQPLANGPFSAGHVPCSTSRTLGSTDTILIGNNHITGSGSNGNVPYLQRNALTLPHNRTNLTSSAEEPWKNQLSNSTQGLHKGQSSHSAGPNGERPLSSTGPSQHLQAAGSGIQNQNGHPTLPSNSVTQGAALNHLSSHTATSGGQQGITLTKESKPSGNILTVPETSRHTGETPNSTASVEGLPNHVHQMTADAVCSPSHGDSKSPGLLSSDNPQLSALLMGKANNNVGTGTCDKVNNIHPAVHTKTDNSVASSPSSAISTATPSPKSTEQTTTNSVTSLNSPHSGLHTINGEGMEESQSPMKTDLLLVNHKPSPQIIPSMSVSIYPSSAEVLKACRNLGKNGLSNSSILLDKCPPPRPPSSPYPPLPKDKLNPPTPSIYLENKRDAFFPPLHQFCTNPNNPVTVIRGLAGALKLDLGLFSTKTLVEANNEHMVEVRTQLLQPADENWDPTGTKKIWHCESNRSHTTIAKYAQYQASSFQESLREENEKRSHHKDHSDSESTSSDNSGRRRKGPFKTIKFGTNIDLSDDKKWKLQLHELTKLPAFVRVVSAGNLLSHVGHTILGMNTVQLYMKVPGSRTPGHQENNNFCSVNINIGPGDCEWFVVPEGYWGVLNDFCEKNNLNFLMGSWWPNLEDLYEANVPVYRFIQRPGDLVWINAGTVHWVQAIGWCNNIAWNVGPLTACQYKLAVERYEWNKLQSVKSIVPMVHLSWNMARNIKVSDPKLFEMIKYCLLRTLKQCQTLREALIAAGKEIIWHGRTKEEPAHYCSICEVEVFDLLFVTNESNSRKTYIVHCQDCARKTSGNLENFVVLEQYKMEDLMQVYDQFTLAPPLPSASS

Compound	inhibition of 100 protein kinases (100 protein kinases)	off-target activity against a panel of 60 unrelated proteins [1]	competition of capture of Flag-tagged UTX by immobilized GSK-J3 [2]	cellular permeability [3]	activity against a panel of demethylases of the JMJ family [4]	hydrolysis by macrophage esterases [3]	levels of LPS-induced JMJD3 or of LPS-independent UTX and EZH2 [5]	effect on TNF-α protein production ([5]; LPS, 6 h)	H3K27 methylation upstream of the TNFA TSS [6]	nuclear H3K27me3 staining in Flag-JMJD3-transfected HeLa cells ([7]; 25 μM)	total nuclear H3K27me3 levels in untransfected cells ([7]; untransfected cells)	LPS-driven cytokines with significantly reduced expression (PCR array) [8]	TNF-α production after siRNA knockdown of either JMJD3 or UTX alone ([5]; 30 μM, LPS 1 h)	cellular toxicity ([5]; conditions of the TNF-α assay)	IC50 ([5]; read-out: IC50 for TNF-α blockade, LPS, 6 h, n = 5 donors)	LPS-induced loss of H3K27me3 associated with the TNFA TSS (ChIP) ([6]; 30 μM, LPS 1 h, n = 8 donors)	recruitment of RNA polymerase II to the TNFA TSS (ChIP) ([6]; 30 μM, LPS 1 h, n = 8 donors)	production of TNF-α by macrophages from patients with rheumatoid arthritis [9]
O=C(O)CCNc1cc(N2CCc3ccccc3CC2)nc(-c2ccccn2)n1 [GSK-J1]	did not significantly inhibit	negligible off-target activity	competitively inhibited	restricts cellular permeability	inactive	–	–	–	–	–	–	–	–	–	–	–	–	–
CCOC(=O)CCNc1cc(N2CCc3ccccc3CC2)nc(-c2cccnc2)n1 [GSK-J5]	–	–	–	–	–	rapidly hydrolysed	neither GSK-J4 nor GSK-J5 directly affected	no effect	Neither GSK-J4 nor GSK-J5 had an effect	–	–	–	–	–	–	–	–	–
CCOC(=O)CCNc1cc(N2CCc3ccccc3CC2)nc(-c2ccccn2)n1 [GSK-J4]	–	–	–	–	–	rapidly hydrolysed	neither GSK-J4 nor GSK-J5 directly affected	–	Neither GSK-J4 nor GSK-J5 had an effect	preserved nuclear H3K27me3 staining	increased total nuclear H3K27me3 levels	16 of 34	still able to inhibit TNF-α production	No interference from cellular toxicity was observed	9 µM	prevented the LPS-induced loss of H3K27me3	blocked the recruitment of RNA polymerase II	blocked the production of TNF-α
